In patent EP4755890A1, “OXO-TRICYCLIC DERIVATIVE AND PHARMACEUTICAL USE THEREOF” (Haisco Pharmaceutical Group Co., Ltd., priority 2023, dated 2025):
pIC50: −log10 of the molar value.

Key:
[1] = target: T1, WRN protein (AA N517-P1238, ICE, Cat. S2212T-H56HZ) (Homo sapiens, UniProt Q14191); experiment: Assay for WRN helicase activity (FORKF dsDNA unwinding, fluorescence); assay type: biochemical; conditions: inhibition of WRN helicase activity; 10 nM WRN, 10 nM FORKF, 2 mM ATP
T1 construct: WRN protein (AA N517-P1238, ICE, Cat. S2212T-H56HZ); purchased ICE S2212T-H56HZ
T1 sequence (Q14191 517-1238, stated change not applied): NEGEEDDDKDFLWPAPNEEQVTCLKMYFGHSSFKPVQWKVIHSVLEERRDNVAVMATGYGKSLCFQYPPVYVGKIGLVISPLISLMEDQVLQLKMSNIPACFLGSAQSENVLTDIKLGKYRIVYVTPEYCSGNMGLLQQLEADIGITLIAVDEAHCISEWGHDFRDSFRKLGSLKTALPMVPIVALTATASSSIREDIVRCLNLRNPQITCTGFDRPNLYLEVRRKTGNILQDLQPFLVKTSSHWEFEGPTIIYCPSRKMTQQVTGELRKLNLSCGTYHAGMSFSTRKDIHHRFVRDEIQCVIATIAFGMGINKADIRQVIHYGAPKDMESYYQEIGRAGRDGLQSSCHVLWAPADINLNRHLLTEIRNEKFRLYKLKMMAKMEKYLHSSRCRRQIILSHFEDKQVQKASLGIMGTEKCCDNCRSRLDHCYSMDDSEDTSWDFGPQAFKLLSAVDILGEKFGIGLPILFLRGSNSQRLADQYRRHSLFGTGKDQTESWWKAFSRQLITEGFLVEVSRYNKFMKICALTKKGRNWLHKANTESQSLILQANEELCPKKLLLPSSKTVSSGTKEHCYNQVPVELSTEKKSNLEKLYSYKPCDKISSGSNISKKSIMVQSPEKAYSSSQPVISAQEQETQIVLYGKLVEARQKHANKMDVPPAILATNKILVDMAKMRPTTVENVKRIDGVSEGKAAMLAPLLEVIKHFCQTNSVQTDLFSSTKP
Procedure: The assay buffer working solution prepared with RNAase-free water was as follows: 25 mM Tris (pH 7.5), 2 mM MgCl2, 50 mM NaCl, 0.02% BSA, 0.01% Tween, and 1 mM DTT. WRN protein (AA N517-P1238, ICE, Cat. S2212T-H56HZ) was obtained through protein expression and purification in vitro. Two single-stranded DNAs were synthesized: […]-BHQ2 (quencher), and (fluorophore) TAMRA-[…]. dsDNA (FORKF) was obtained via annealing of the two single-stranded DNAs. When the WRN protein bound to FORKF, the dsDNA was unwound, exposing the fluorophore, thereby generating fluorescence. 2 µL of compounds at different concentrations and 4 µL of WRN protein were added to a 384-well black plate (Greiner, Cat#784075). The plate was pre-incubated at room temperature for 20 minutes. 2 µL each of ATP and the FORKF substrate were added. The working concentrations of the WRN protein, FORKF, and ATP were 10 nM, 10 nM, and 2 mM, respectively. The plate was incubated at room temperature for 20 minutes. After the incubation was completed, the fluorescence value was read at Ex 540 nm/Em 590 nm using a BMG microplate reader (PHERAstar FSX).
The inhibition rate was calculated according to Formula 2, where RLUsample is the readout of the compound well, RLUmax is the readout of the DMSO control well, and RLUmin is the readout of the control well without the WRN protein. Curve fitting was performed via a four-parameter logistic model using GraphPad Prism software, and the IC50 value (the concentration of the compound when the inhibition rate was 50%) was calculated. Inhibition% = (1−(RLUsample−RLUmin)/(RLUmax−RLUmin)) × 100% [formula] Table 2. Results of inhibitory activity of test compounds against WRN helicase activity

HT-29 cells = experiment: HT-29 cell proliferation inhibition assay (CellTiter-Glo); assay type: cell-based; conditions: Homo sapiens, 96 h, 4 days, read-out: Inhibitory activity against HT-29 cell proliferation IC50
Procedure: The culture conditions for HT-29 cells were as follows: DMEM + 10% FBS + 1% penicillin-streptomycin, and the cells were cultured in an incubator with 5% CO2 at 37°C. On the first day, the HT-29 cells in the exponential growth phase were collected and plated in 96-well cell culture plates at a density of 1000 cells/well (180 µL/well). The plates were cultured overnight in an incubator with 5% CO2 at 37°C. T0 wells were plated simultaneously during the plating process. The next day, 20 µL of compounds at different concentrations were added to each well (nine compound concentration gradients, one DMSO well, and one blank well; each compound concentration was plated in triplicate), and the final concentration of DMSO in each well was 0.1%. The plates were cultured in an incubator with 5% CO2 at 37°C for 4 days. On the same day of compound addition, the T0 plate was detected using the CellTiter-Glo Kit, and the detected value was recorded as RLU0. After the culture was completed, 100 µL of detection solution (Cell Viability Assay, Promega) was added to each well. The plates were incubated at room temperature for 10 minutes with slow shaking. The chemiluminescence reading was read using a BMG microplate reader (PHERAstar FSX). The results were processed according to Formula (4) to calculate the proliferation inhibition rate of compounds at each concentration. Curve fitting was performed via a four-parameter logistic model using GraphPad Prism software, and the GI50 value (the concentration of the compound when the proliferation inhibition rate was 50%) was calculated. In the formula, RLUcompound is the readout of the drug-treated group, RLUcontrol is the average value of the compound vehicle control group, and RLUBlank is the average value of the blank control group. [formula]

[2] = Beagle dog pharmacokinetic assay; assay type: in vivo, Beagle dogs; conditions: po; Beagle dog plasma, i.g. (3 mg/kg)
Procedure: 7.1. Experimental animals: Male Beagle dogs, about 8-13 kg, 6 Beagle dogs/compound.
7.2. Experimental method: On the day of the experiment, the Beagle dogs were randomly grouped according to their body weights. The animals were fasted with water available for 14-18 h one day before the administration, and were fed 4 h after the administration. The animals were administered according to Table 6. Table 6. Administration information
Note: Vehicle for intravenous administration: 5% DMA + 5% Solutol + 90% Saline; and vehicle for intragastric administration: 5% DMSO + 95% (20% SBE-β-CD in Saline) (DMA: dimethylacetamide; Solutol: polyethylene glycol-15-hydroxystearate; Saline: normal saline; and MC: methylcellulose)
Before and after the administration, 1 ml of blood was taken from the jugular veins or limb veins and placed in an EDTAK2 centrifuge tube. The tube was centrifuged at 5000 rpm at 4°C for 10 min, and plasma was collected. The blood collection time points for the intravenous administration group and intragastric administration group were as follows: 0, 5 min, 15 min, 30 min, 1 h, 2 h, 4 h, 6 h, 8 h, 10 h, 12 h, 24 h, and 48 h. Before analysis and detection, all samples were stored at -80°C. The samples were analyzed quantitatively by LC-MS/MS. Table 7. Pharmacokinetic parameters of test compounds in Beagle dog plasma

SMILES	pIC50 [1]	pIC50 (HT-29 cells)	AUC(0-t) [2] [ng·h/mL]
Cc1ncnc(C(=O)N2CCN(c3c4n(c5nc(C6=CCOCC6)nn5c3=O)C(C(=O)Nc3ccc(C(F)(F)F)cc3Cl)CCC4)C[C@H]2C)c1O (single isomer, unassigned) [Compound 8-B]	> 7.70	–	–
Cc1ncnc(C(=O)N2CCN(c3c4n(c5nc(C6=CCOCC6)nn5c3=O)[C@@H](C(=O)Nc3ccc(C(F)(F)F)cc3Cl)CCC4)CC2)c1O [Compound 1-B]	> 7.70	≤ 5.00	19900
Cc1ncnc(C(=O)N2[C@@H](C)CN(c3c4n(c5nc(C6=CCOCC6)nn5c3=O)[C@@H](C(=O)Nc3ccc(C(F)(F)F)cc3Cl)CCC4)C[C@@H]2C)c1O [Compound 20-A]	> 7.70	≤ 5.00	19700
